# In US20220088024A1, “METHODS FOR TREATING CANCER USING TOZADENANT” (Biotie Therapies, Inc., priority 2018, published 2022):
# Where “and” joins values, the source holds several entries; their conditions need not be identical. Equal entries are not always repeated.
# Tests used:
# [1] = Example 12: pharmacokinetics of tozadenant tablets (180 mg single dose, bioequivalence study) in humans; assay type: in vivo; settings: both sexes, plasma, oral, 180 mg (approximately 2.6 mg/kg in 70 kg human)
# Protocol: In a clinical study, tozadenant was administered PO as tablets under fasted conditions, as a single administration at 180 mg. This was an open-label, single-center, randomized, 2-treatment, 2-way crossover bioequivalence study testing 2 different tablet formulation of tozadenant. A modified formulation of tozadenant has been developed for use in Phase 3 studies. The modified formulation for use in Phase 3 studies contains four fewer excipients compared to the Phase 2 formulation. This study, therefore, evaluated the bioequivalence of the Phase 3 formulation and the Phase 2 formulation.
# Thirty-six (36) healthy adult, non-tobacco using male and female subjects were enrolled to ensure completion by 32 subjects. […]
# The following PK parameters were calculated from the individual plasma tozadenant concentration-time data. All PK parameters were calculated using Phoenix WinNonlin® Version 6.3. […] For the calculation of the PK parameters, concentration values below the limit of quantitation (BLQ) were treated as zero before the first quantifiable concentration and as missing thereafter. […]
# AUC and Cmax parameters were not to be calculated for subjects with only 2 or less consecutive time points with detectable concentrations. […]
# Tozadenant was quantitated using a validated liquid chromatography/tandem mass spectrometry method with a lower limit of quantitation (LLOQ) of 0.00500 μg/mL.
# [2] = test system: AT-3ova CD73+ tumour (mouse breast carcinoma cell line AT-3); experiment: Example 3: anti-tumor responses of SYN-115 QD or BID in the AT-3ova CD73+ tumour cell mouse model (tumor area); assay type: in vivo, C57/BL6 mice; parameters: key to Raw Tumor Measurements: tumor area, width × length in mm^2
# Protocol: The C57BL/6 mouse breast carcinoma cell line AT-3 was obtained from Dr. Trina Stewart (Griffith University, Nathan, QLD, Australia. Tumor cell lines were transduced to express chicken ovalbumin peptide and CD73 as previously described (1, 2, 3). Tumor cells are periodically verified to be Mycoplasma negative by the Victorian Infectious Diseases References Lab (Melbourne, VIC, Australia) by PCR analysis. Tumor cells were grown in DMEM supplemented with 10% FCS, GlutaMAX, and penicillin/streptomycin. 5×10^5 cells were resuspended in PBS and injected s.c. into C57/BL6 mice in a 100 μL volume. At day 14 tumors were measured and mice were randomized into distinct treatment groups to ensure that each group had tumors of similar size at the onset of treatment. Mice were treated i.p. at days 14, 18, 22, and 26 with either isotype control (2A3; 200 μg/mouse) or anti-PD-1 mAb (RMP1-14, 200 μg/mouse) and where indicated SYN-115 (Batch 71236AA002) at the indicated dose or vehicle control once or twice-daily via oral gavage on days 14 to 29. To calculate a dose of SYN-115 mouse weight was estimated to be 20 g per mouse. Therefore, 100 mg/kg=2 mg per mouse in […] which is equivalent to 10 mg/ml. To make up 40 mL, 400 milligrams of SYN-115 was weighed and added into a Falcon tube, then 1 mL of Tween 80 was added and mixed into a paste and then 39 mL of 1% Methyl Cellulose was added. The solution was vortexed and then left on a rotating mixer for at least 2 hours and maintained at 4° C. Tumor measurements were taken 2-3 times per week. Tumor sizes were determined by width * length and mice were culled when tumors reached the ethical limit of 150 mm^2.
# [3] = test system: B16F10 CD73 melanoma metastases; experiment: Example 8: number of lung tumor metastases in the B16F10 CD73 tumor mouse model; assay type: in vivo, C57/BL6 mice (A2A-/- or Wild-Type); settings: 100 mg/kg once-daily oral gavage days 0 to 13, counted day 14, Batch 71236AA002
# Protocol: The C57/BL6 mouse melanoma cell line B16F10 CD73 was cultured in DMEM supplemented with 10% FCS, GlutaMAX, and penicillin/streptomycin. Tumor cells are periodically verified to be Mycoplasma negative by the Victorian Infectious Diseases References
# Lab (Melbourne, VIC, Australia) by PCR analysis. 2×10^5 cells were resuspended in PBS and injected i.v. into C57/BL6 mice (A2A^−/− or Wild-Type) in a 200 μL volume. At day 14, lungs were excised and the number of metastases counted under the dissecting microscope. Mice were dosed with either SYN-115 (Batch 71236AA002) at 100 mg/kg or vehicle control once-daily via oral gavage on days 0 to 13. To calculate a dose of SYN-115, mouse weight was estimated to be 20 g per mouse. Therefore, 100 mg/kg=2 mg per mouse in 200 μL, which is equivalent to 10 mg/ml. To make up 40 mL 400 milligrams of SYN-115 was weighed and added into a Falcon tube, then 1 mL of Tween 80 added and mixed into a paste and then 39 mL of 1% Methyl Cellulose was added. Solution was vortexed and then left on rotating mixer for at least 2 hours and maintained at 4° C.
compound,measurement,setting,value
"COc1ccc(N2CCOCC2)c2sc(NC(=O)N3CCC(C)(O)CC3)nc12 [SYN-115, 4-hydroxy-4-methyl-piperidine-1-carboxylic acid (4-methoxy-7-morpholin-4-yl-benzothiazol-2-yl)-amide]",AUC,[1],20600 ng·h/mL
same,Tumor size (width * length),"[2]; 2A3 (200 ug/mouse)+SYN-115 (100 mg/kg) QD, Day 0",19.38 mm^2 and 14.96 mm^2 and 20 mm^2 and 24.38 mm^2 and 13.26 mm^2 and 18.9 mm^2
same,Tumor size (width * length),"[2]; 2A3 (200 ug/mouse)+SYN-115 (100 mg/kg) QD, Day 31",73.1 mm^2
same,Tumor size (width * length),"[2]; 2A3 (200 ug/mouse)+SYN-115 (100 mg/kg) QD, Day 34",74.82 mm^2
same,Tumor size (width * length),"[2]; 2A3 (200 ug/mouse)+SYN-115 (100 mg/kg) QD, Day 39",86.45 mm^2
same,Tumor size (width * length),"[2]; 2A3 (200 ug/mouse)+SYN-115 (100 mg/kg) QD, Day 42",129.87 mm^2
same,Raw Tumor Measurements,"[2]; Anti-PD-1 (200 ug)+SYN-115 (30 mg/kg) BID, Day 0",12.6 and 15.54 and 22 and 16.38 and 22.68 and 18.36
same,Raw Tumor Measurements,"[2]; Anti-PD-1 (200 ug)+SYN-115 (30 mg/kg) BID, Day 17",44.08 and 44.22 and 73.92 and 38.86 and 63.24 and 66.64
same,Raw Tumor Measurements,"[2]; Anti-PD-1 (200 ug)+SYN-115 (30 mg/kg) BID, Day 31",111.28 and 64.74
same,Raw Tumor Measurements,"[2]; Anti-PD-1 (200 ug)+SYN-115 (30 mg/kg) BID, Day 34",73.1
same,Raw Tumor Measurements,"[2]; Anti-PD-1 (200 ug)+SYN-115 (30 mg/kg) BID, Day 39",69.6
same,Raw Tumor Measurements,"[2]; Anti-PD-1 (200 ug)+SYN-115 (30 mg/kg) BID, Day 42",99.51
same,Raw Tumor Measurements,"[2]; Anti-PD-1 (200 ug)+SYN-115 (30 mg/kg) BID, Day 44",114.33
same,Tumor size (width * length),"[2]; Anti-PD-1 (200 ug)+SYN-115 (30 mg/kg) QD, Day 28",58.5 mm^2 and 63.99 mm^2 and 113.1 mm^2
same,Tumor size (width * length),"[2]; Anti-PD-1 (200 ug)+SYN-115 (30 mg/kg) QD, Day 31",57.76 mm^2 and 74.82 mm^2
same,Tumor size (width * length),"[2]; Anti-PD-1 (200 ug)+SYN-115 (30 mg/kg) QD, Day 34",72.8 mm^2 and 93.06 mm^2
same,Tumor size (width * length),"[2]; Anti-PD-1 (200 ug)+SYN-115 (30 mg/kg) QD, Day 39",83.42 mm^2 and 127 mm^2
same,Tumor size (width * length),"[2]; Anti-PD-1 (200 ug)+SYN-115 (30 mg/kg) QD, Day 42",127.53 mm^2
same,Raw Tumor Measurements,"[2]; Anti-PD-1 (200 ug)+SYN-115 (100 mg/kg) BID, Day 0",16.28 and 15.96 and 20.46 and 16.8 and 24.12 and 12.24
same,Raw Tumor Measurements,"[2]; Anti-PD-1 (200 ug)+SYN-115 (100 mg/kg) BID, Day 22",49.92 and 83.7 and 67.45 and 51.48 and 75.64 and 82.39
same,Raw Tumor Measurements,"[2]; Anti-PD-1 (200 ug)+SYN-115 (100 mg/kg) BID, Day 28",66.96 and 98.79 and 88.4 and 132.3 and 118.34
same,Raw Tumor Measurements,"[2]; Anti-PD-1 (200 ug)+SYN-115 (100 mg/kg) BID, Day 31",79.38 and 102.08 and 109.44
same,Raw Tumor Measurements,"[2]; Anti-PD-1 (200 ug)+SYN-115 (100 mg/kg) BID, Day 34",99.36
same,Raw Tumor Measurements,"[2]; Anti-PD-1 (200 ug)+SYN-115 (100 mg/kg) BID, Day 39",103.55
same,Raw Tumor Measurements,"[2]; Anti-PD-1 (200 ug)+SYN-115 (100 mg/kg) QD, Day 0",14.82 and 14.76 and 15.17 and 15.12 and 23.78
same,Raw Tumor Measurements,"[2]; Anti-PD-1 (200 ug)+SYN-115 (100 mg/kg) QD, Day 9",29.07 and 25 and 29.68 and 26 and 34.78 and 29.25
same,Raw Tumor Measurements,"[2]; Anti-PD-1 (200 ug)+SYN-115 (100 mg/kg) QD, Day 13",32.45 and 39.33 and 38.19 and 25.48 and 40.7 and 33.5
same,Raw Tumor Measurements,"[2]; Anti-PD-1 (200 ug)+SYN-115 (100 mg/kg) QD, Day 15",39.33 and 42 and 44.2 and 32.86 and 50.74 and 25.85
same,Raw Tumor Measurements,"[2]; Anti-PD-1 (200 ug)+SYN-115 (100 mg/kg) QD, Day 17",39.53 and 44.4 and 48 and 31.35 and 52.92 and 44.73
same,Raw Tumor Measurements,"[2]; Anti-PD-1 (200 ug)+SYN-115 (100 mg/kg) QD, Day 20",48.28 and 61.56 and 66.6 and 48.99 and 61.2 and 51.2
same,Raw Tumor Measurements,"[2]; Anti-PD-1 (200 ug)+SYN-115 (100 mg/kg) QD, Day 24",51.83 and 72.98 and 86.92 and 53.96 and 85.05 and 46.8
same,Raw Tumor Measurements,"[2]; Anti-PD-1 (200 ug)+SYN-115 (100 mg/kg) QD, Day 28",55.2 and 90.09 and 97.9 and 77.44 and 95.04 and 77.19
same,Raw Tumor Measurements,"[2]; Anti-PD-1 (200 ug)+SYN-115 (100 mg/kg) QD, Day 31",74.82 and 128.76 and 81.7 and 101.37 and 79.9
same,Raw Tumor Measurements,"[2]; Anti-PD-1 (200 ug)+SYN-115 (100 mg/kg) QD, Day 34",79.05 and 95.06 and 81.32
same,Raw Tumor Measurements,"[2]; Anti-PD-1 (200 ug)+SYN-115 (100 mg/kg) QD, Day 39",81.9 and 104.86 and 82.95
same,Raw Tumor Measurements,"[2]; Anti-PD-1 (200 ug)+SYN-115 (100 mg/kg) QD, Day 42",127.33 and 132.24
same,"Number of Tumor Metastases (lung), individual mice",[3],21 and 1 (2×) and 5 and 11 and 13 and 28 and 2 and 8
